According to US12673924B2, “Valiolamine derivatives as glucosidase inhibitors” (Emergent Product Development Gaithersburg Inc., priority 2021, dated 2026):

Tests used:
Format in all cases: biochemical
rat sucrase = target: T1, rat sucrase (Rattus norvegicus, UniProt P23739); experiment: Intestinal alpha-glucosidase assay, sucrose substrate; settings: alpha-glucosidase from intestinal rat powder
T1 construct: partially purified alpha-glucosidase from intestinal rat powder; from tissue; host or cells: rat intestinal powder
T1 sequence (P23739 whole entry): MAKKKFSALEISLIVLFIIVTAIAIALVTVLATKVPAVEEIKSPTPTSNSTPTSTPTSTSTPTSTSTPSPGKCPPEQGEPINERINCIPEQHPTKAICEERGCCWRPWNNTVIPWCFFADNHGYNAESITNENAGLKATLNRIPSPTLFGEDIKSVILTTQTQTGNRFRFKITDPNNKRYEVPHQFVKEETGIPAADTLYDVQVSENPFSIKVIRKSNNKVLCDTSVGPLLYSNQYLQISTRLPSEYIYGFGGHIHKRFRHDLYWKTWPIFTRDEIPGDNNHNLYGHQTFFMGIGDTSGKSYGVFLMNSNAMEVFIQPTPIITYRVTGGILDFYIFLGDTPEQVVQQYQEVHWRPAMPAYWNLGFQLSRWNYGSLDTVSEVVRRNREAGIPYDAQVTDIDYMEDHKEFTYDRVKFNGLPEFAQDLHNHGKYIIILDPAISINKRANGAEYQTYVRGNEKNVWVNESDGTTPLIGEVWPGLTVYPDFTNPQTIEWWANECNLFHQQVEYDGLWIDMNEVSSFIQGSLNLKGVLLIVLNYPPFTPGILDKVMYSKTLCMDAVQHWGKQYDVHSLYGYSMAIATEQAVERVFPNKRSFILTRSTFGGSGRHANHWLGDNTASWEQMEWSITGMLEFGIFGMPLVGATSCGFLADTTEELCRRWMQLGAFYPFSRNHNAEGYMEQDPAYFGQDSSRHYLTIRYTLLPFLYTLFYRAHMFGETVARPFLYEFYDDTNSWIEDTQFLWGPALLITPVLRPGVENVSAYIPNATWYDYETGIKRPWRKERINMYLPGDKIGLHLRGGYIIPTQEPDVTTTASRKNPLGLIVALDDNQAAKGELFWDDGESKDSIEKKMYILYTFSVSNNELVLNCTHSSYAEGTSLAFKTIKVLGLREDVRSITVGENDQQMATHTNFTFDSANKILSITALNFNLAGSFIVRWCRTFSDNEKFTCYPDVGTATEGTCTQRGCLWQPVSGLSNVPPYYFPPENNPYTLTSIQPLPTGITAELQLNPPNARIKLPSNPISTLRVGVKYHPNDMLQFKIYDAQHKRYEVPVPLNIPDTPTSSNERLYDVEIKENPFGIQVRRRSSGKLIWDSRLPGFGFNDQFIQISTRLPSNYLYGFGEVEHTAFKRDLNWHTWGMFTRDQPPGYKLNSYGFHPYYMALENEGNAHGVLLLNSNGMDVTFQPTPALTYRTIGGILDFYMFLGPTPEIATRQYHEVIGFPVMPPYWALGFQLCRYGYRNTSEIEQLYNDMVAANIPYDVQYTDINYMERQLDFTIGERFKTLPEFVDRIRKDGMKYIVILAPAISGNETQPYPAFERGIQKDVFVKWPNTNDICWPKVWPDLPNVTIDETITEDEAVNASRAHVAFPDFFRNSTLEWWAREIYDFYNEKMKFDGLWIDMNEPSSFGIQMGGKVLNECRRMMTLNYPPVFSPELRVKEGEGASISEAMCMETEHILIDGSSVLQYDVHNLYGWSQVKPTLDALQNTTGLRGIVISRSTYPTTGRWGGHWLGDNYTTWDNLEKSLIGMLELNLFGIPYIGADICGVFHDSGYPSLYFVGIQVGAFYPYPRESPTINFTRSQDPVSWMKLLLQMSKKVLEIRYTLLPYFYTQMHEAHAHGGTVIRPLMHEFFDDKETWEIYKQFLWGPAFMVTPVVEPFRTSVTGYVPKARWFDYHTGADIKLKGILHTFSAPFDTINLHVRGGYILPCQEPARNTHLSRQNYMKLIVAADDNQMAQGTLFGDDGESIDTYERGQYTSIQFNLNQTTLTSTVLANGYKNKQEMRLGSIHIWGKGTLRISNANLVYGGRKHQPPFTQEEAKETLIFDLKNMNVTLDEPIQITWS
Description: (§1) Intestinal alpha-glucosidases (rat maltase and sucrase): Intestinal alpha-glucosidases act upon 1,4-alpha-glucoside bonds, breaking down disaccharides to glucose. To perform this assay, partially purified alpha-glucosidase from intestinal rat powder was incubated for 60 minutes at 37° C. with multiple dilutions of test compounds. Maltose or Sucrose respectively was then introduced as substrate to the mixture and incubated for 30 minutes at 37° C. The reaction was stopped by a 5-minute incubation at 90° C. and the resultant glucose production is detected using Sigma's Glucose GO Kit. Percent inhibition was then plotted as a function of concentration for each test compound. The IC50 was determined using a 4-PL curve fit and serves as the measure of relative inhibition of each test compound (see Table 4). Table 4 summarizes the results of IC50s for each molecule against each tested glucosidase enzyme.

rat maltase = experiment: Intestinal alpha-glucosidase assay, maltose substrate; settings: alpha-glucosidase from intestinal rat powder
Description: as §1

recombinant human GBA = target: T2, recombinant human GBA (Homo sapiens, UniProt P04062); experiment: Beta-glucocerebrosidase (GBA) inhibition assay; settings: 4-methylumbelliferyl-beta-D-pyranoside substrate, 4-PL curve fit
T2 construct: purchased
T2 sequence (P04062 40-536): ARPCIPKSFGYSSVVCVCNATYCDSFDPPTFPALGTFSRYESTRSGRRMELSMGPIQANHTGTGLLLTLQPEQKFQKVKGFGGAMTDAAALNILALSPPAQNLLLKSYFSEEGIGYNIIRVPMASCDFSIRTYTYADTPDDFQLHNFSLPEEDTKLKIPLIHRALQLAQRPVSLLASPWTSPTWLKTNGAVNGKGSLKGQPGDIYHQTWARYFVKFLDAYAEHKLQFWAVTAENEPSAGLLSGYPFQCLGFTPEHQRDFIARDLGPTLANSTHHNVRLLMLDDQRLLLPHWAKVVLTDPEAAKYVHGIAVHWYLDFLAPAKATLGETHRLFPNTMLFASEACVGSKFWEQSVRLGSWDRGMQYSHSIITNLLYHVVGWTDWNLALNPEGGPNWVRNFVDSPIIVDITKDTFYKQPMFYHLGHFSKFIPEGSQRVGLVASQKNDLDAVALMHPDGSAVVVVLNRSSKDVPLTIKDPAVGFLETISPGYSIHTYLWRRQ
Description: Beta-glucocerebrosidase (GBA, also referred to glucosylceramidase): To analyze inhibitory effects of a test compound, commercially available recombinant human GBA was incubated with multiple dilutions of test compound for 60 minutes at 37° C. 4-methylumbelliferyl-beta-D-pyranoside was then introduced to the mixture as substrate. Following incubation for 60 minutes at 37° C., 1,4-methyllumbelliferone was generated, and the reaction was stopped with the stop solution (0.5 M glycine; 0.3 M NaOH, pH 10). 1,4-methyllumbelliferone was detected by fluorescence (excitation at 365 nm, emission at 440 nm). Relative fluorescence is compared to untreated enzymatic activity and test compound concentration is then plotted as a function of percent inhibition. The IC50 was determined using a 4-PL curve fit as the measure of relative inhibitory activity of each test compound (see Table 4).

IC50 (rat sucrase): 0.07 µM
IC50 (rat maltase): 1.47 µM
IC50 (recombinant human GBA): > 1000 µM
SMILES: CCCCN[C@H]1C[C@](O)(CO)[C@@H](O)[C@H](O)[C@H]1O [Compound 1, (1S,2S,3R,4S,5S)-5-(butylamino)-1-(hydroxymethyl)cyclohexane-1,2,3,4-tetraol]
